# Assay results: the supplement of paper PMC10307832
# Compound: COc1cccc2cc(-c3nc([C@H]4CC[C@H](C(=O)O)CC4)n4ncnc(N)c34)[nH]c12 [OSI-027] + CS(=O)(=O)CCNCc1ccc(-c2ccc3ncnc(Nc4ccc(OCc5cccc(F)c5)c(Cl)c4)c3c2)o1 [Lapatinib] (partner 2 µM)
# Experiment: relative viability (nuclei count vs DMSO), 5 days (fraction); higher = more cells survive
# Conditions: first compound 1 µM
# Procedure, shortened: (§1)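 Nuclei were stained with Hoechst during a one-step fixation (final 0.05% Triton X-100, 1% formaldehyde, 1 ug/ml Hoechst) carried out 5 days after dosing, then counted on 4× images. The cells, lung cancer lines in 1536-well plates, had been dosed by pin tool the day after seeding with one drug alone or a fixed anchor-drug dose plus five library-drug doses (not always all listed) in √10 steps. Relative viability is the nuclei count in treated wells divided by that in vehicle wells, and each value is the median of duplicate plates.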
row,Cell Line,relative viability
1,NCI-H1993,0.693
2,NCI-H1355,0.363
3,HCC-366,0.148
4,NCI-H1915,0.806
5,NCI-H838,0.377
6,Calu-6,0.621
7,NCI-H1563,0.775
8,NCI-H1792,0.213
9,EBC-1,0.203
10,A549,0.314
11,IA-LM,0.223
12,HCC-78,0.518

# Compound: CCCS(=O)(=O)Nc1ccc(F)c(C(=O)c2c[nH]c3ncc(-c4ccc(Cl)cc4)cc23)c1F [Vemurafenib] + O=C(CCCCCCC(=O)Nc1ccccc1)NO [Vorinostat] (partner 1 µM)
# Experiment: as above
# Conditions: first compound 0.03162 µM
# Procedure, shortened: as §1
row,Cell Line,relative viability
1,NCI-H2126,0.761
2,EPLC-272H,0.553
3,NCI-H1755,0.749
4,NCI-H2023,0.531
5,NCI-H1650,0.466
6,NCI-H1793,0.652
7,NCI-H2342,0.623
8,H3255,0.758
9,NCI-H1975,0.715
10,PC-14,0.72
11,NCI-H1437,0.798
12,HOP-62,0.515
13,HCC-44,1.09
14,BEN,0.494
15,LOU-NH91,0.87
16,NCI-H661,0.73

row,Cell Line,relative viability
1,NCI-H1651,0.524
2,SW 1573,0.655
3,LK-2,0.261
4,NCI-H2405,0.911
5,NCI-H1993,0.739
6,ChaGo-K-1,0.743
7,NCI-H1355,0.56
8,HCC-366,0.271
9,NCI-H1915,0.468
10,NCI-H838,0.683
11,LCLC-103H,0.728
12,NCI-H522,0.901
13,IA-LM,0.975
14,SW 900,0.41
15,NCI-H441,0.875
16,HCC-78,0.425

# Same assay, conditions: first compound 0.1 µM
row,Cell Line,relative viability
1,NCI-H2126,0.576
2,EPLC-272H,0.4
3,NCI-H1755,0.728
4,NCI-H2023,0.662
5,NCI-H1650,0.477
6,NCI-H1793,0.426
7,NCI-H2342,0.785
8,NCI-H1975,0.661
9,NCI-H1437,0.825
10,HOP-62,0.593
11,HCC-44,1.01
12,BEN,0.592
13,LOU-NH91,0.742
14,NCI-H661,0.72
15,NCI-H1651,0.581
16,SW 1573,0.767
17,LK-2,0.271
18,NCI-H2405,0.987
19,NCI-H1648,0.315
20,ChaGo-K-1,0.762
21,NCI-H1355,0.58
22,HCC-366,0.38
23,NCI-H1915,0.468
24,NCI-H838,0.726
25,LCLC-103H,0.791
26,NCI-H522,0.846
27,IA-LM,0.914
28,SW 900,0.466
29,NCI-H441,0.663
30,HCC-78,0.351

# Same assay, conditions: first compound 0.3162 µM
row,Cell Line,relative viability
1,NCI-H2126,0.869
2,EPLC-272H,0.528
3,NCI-H1755,0.68
4,NCI-H2023,0.57
5,NCI-H1650,0.682
6,NCI-H1793,0.78
7,NCI-H2342,0.755
8,H3255,0.709
9,NCI-H1975,0.602
10,PC-14,0.643
11,NCI-H1437,0.873
12,HOP-62,0.583
13,HCC-44,1.09
14,BEN,0.402
15,LOU-NH91,0.692
16,NCI-H661,0.803

row,Cell Line,relative viability
1,NCI-H1651,0.471
2,PC-3 [JPC-3],0.66
3,SW 1573,0.473
4,LK-2,0.3
5,NCI-H1648,0.706
6,NCI-H1993,1.02
7,ChaGo-K-1,0.605
8,NCI-H1355,0.566
9,NCI-H1915,0.455
10,NCI-H838,0.6
11,LCLC-103H,0.657
12,NCI-H522,0.835
13,IA-LM,0.946
14,SW 900,0.636
15,NCI-H441,0.652
16,HCC-78,0.79

# Same assay, conditions: first compound 1 µM
row,Cell Line,relative viability
1,NCI-H2126,0.633
2,EPLC-272H,0.543
3,NCI-H1755,0.778
4,NCI-H2023,0.584
5,NCI-H1650,0.485
6,NCI-H1793,0.702
7,NCI-H2342,0.787
8,H3255,0.638
9,NCI-H1975,0.726
10,PC-14,0.655
11,NCI-H1437,0.945
12,HOP-62,0.484
13,HCC-44,1.16
14,BEN,0.503
15,LOU-NH91,0.933
16,NCI-H661,0.749
17,NCI-H1651,0.625

row,Cell Line,relative viability
1,PC-3 [JPC-3],1.06
2,SW 1573,0.537
3,LK-2,0.247
4,NCI-H2405,1.03
5,NCI-H1648,0.546
6,NCI-H1993,0.876
7,ChaGo-K-1,0.762
8,NCI-H1355,0.642
9,HCC-366,0.306
10,NCI-H1915,0.478
11,NCI-H838,0.844
12,LCLC-103H,0.721
13,NCI-H522,0.714
14,IA-LM,0.966
15,SW 900,0.379
16,NCI-H441,0.642
17,HCC-78,0.4

# Compound: Cc1nc(NC(=O)N2CCC[C@H]2C(N)=O)sc1-c1ccnc(C(C)(C)C(F)(F)F)c1 [Alpelisib] + CS(=O)(=O)CCNCc1ccc(-c2ccc3ncnc(Nc4ccc(OCc5cccc(F)c5)c(Cl)c4)c3c2)o1 [Lapatinib] (partner 2 µM)
# Experiment: as above
# Conditions: first compound 0.04 µM
# Procedure, shortened: as §1
row,Cell Line,relative viability
1,NCI-H2126,0.75
2,EPLC-272H,0.859
3,NCI-H1755,1.03
4,NCI-H2023,0.717
5,NCI-H1650,0.718
6,NCI-H1793,0.647
7,H3255,0.242
8,NCI-H1975,0.874
9,PC-14,0.358
10,NCI-H1299,0.977
11,NCI-H1437,0.756
12,HOP-62,1.03
13,HCC-44,1.12
14,BEN,0.715
15,LOU-NH91,0.767
16,NCI-H661,0.471
17,NCI-H1651,0.773
18,PC-3 [JPC-3],0.438
